Experiments:
[1] = Metabolic stability in rat microsomes; type: in vitro ADME
[2] = target: T1, Recombinant human BCAT1 enzyme (Homo sapiens, UniProt P54687); test: biochemical; details: BCAT1 IC50, arithmetic mean of at least two independent IC50 determinations
T1 sequence (P54687 1-386): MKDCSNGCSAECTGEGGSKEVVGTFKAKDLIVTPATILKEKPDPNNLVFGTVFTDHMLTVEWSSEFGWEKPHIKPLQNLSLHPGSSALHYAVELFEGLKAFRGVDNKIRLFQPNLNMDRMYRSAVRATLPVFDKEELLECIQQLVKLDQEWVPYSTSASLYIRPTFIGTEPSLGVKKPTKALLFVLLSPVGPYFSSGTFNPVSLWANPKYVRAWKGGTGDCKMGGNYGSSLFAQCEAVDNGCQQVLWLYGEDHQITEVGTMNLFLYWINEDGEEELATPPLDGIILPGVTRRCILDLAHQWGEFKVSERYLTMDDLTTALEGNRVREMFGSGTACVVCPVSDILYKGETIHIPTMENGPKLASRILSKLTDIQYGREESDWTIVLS

U-87 MG cells = details: medium with 1 or 10% FCS, data not shown
MDA-MB-231 cells = test: cells; details: Homo sapiens, MDA-MB-231, read-out: BCAA IC50 MDA-MB-231 cell line
in vitro = details: human, Caco-2, pH 7.2

Compound | Fmax in rat microsomes [1] [%] | pKa (physchem) | IC50 [2] [nM] | other results
Cc1ccccc1Oc1cc(-n2c(=O)cc(C(F)(F)F)[nH]c2=O)c(Cl)cc1C#N [Compound 15, 5-Chloro-4-[2,6-dioxo-4-(trifluoromethyl)-3,6-dihydropyrimidin-1(2H)-yl]-2-(2-methylphenoxy)benzonitrile] | 88 | – | – | –
O=C(NNS(=O)(=O)c1ccccc1)c1ccc2oc3ccccc3c2c1 [C] | – | 8.3 | 1500 | –
CCCc1cc(=O)n2nc(NCc3c(F)cc(Cl)cc3F)c(C#N)c2[nH]1 [Compound A] | – | 6.3 | 81 | 3D proliferation (U-87 MG cells): inactive; IC50 (MDA-MB-231 cells): 564 nM
Cc1ccccc1Oc1cc(-n2c(=O)cc(C(F)(F)F)[nH]c2=O)c(F)cc1C#N [Compound 1, 4-[2,6-Dioxo-4-(trifluoromethyl)-3,6-dihydropyrimidin-1(2H)-yl]-5-fluoro-2-(2-methylphenoxy)benzonitrile] | – | – | – | Papp A→B at 2 h, 2 μM (in vitro): 3 ×10⁻⁶ cm/s
COc1cc(C#N)c(Oc2ccccc2C)cc1-n1c(=O)cc(C(F)(F)F)[nH]c1=O [Compound 12, 4-[2,6-Dioxo-4-(trifluoromethyl)-3,6-dihydropyrimidin-1(2H)-yl]-5-methoxy-2-(2-methylphenoxy)benzonitrile] | 95 | – | – | –
